According to patent publication US20080033026A1, “Antimicrobial compositions, methods and systems” (priority 2006, published 2008):

What was measured:
Format in all cases: cell-based
[1] = tested on: Aspergillus flavus (ATCC 5917); assay: MIC on Potato Dextrose Agar; conditions: PDA agar, 25-30° C.
Method: (§1) The efficacy of antimicrobial compositions in accordance with aspects of the invention against the following organisms was determined as follows. The following organisms were incubated in the presence of varying concentrations of 9-decenoic acid (9-DA) on an agar surface: Aspergillus parasiticus (ATCC 56857), Trichoderma virens (ATCC 9645), Aspergillus flavus (ATCC 96045), Cladosporium cladosporiodes (ATCC 16022), Aspergillus flavus (ATCC 5917), Aspergillus oryzae (ATCC 10124), Aspergillus parasiticus (ATCC 13539), Ulocladium atrum (ATCC 52426), Candida albicans (ATCC 11651), Aspergillus niger (ATCC 11414).
(§2) Fungal spores were hydrated in 0.1% Tween 80 and then plated onto Potato Dextrose Agar (PDA) (Difco # 213400; Becton, Dickinson and Company, Sparks, Md.) and incubated at 25-30° C. for six (6) days. The spores were washed from the surface with 5 ml of 0.1% Tween 80 and enumerated.
(§3) PDA plates were prepared according to the manufacturer's instructions through sterilization. The agar was tempered to approximately 50° C. and filter sterilized. Antimicrobial compositions containing 9-DA were added by percent weight to molten autoclaved PDA media, with consideration of specific gravity (0.915 g/mL for 9-DA) and purity (98% for 9-DA). The agar was thoroughly mixed and poured into sterile petri plates and allowed to solidify.
(§4) The agar plates were inoculated with the spore solution to achieve 10^2 spores/plate. The plates were incubated at 25-30° C. in Ziploc bags with a wet paper towel to keep the moisture level high. The plates were examined for growth at 1, 2, 3, 4, 8, 11, 15, 17, 23, 29 and 31 days. The percent coverage of growth on the agar surface was recorded at each sample point.

[2] = tested on: Aspergillus parasiticus (ATCC 13539); assay: MIC on Potato Dextrose Agar; conditions: PDA agar, 25-30° C.
Method: as §1, §2, §3, §4

[3] = tested on: Aspergillus parasiticus (ATCC 56857); assay: MIC on Potato Dextrose Agar; conditions: PDA agar, 25-30° C.
Method: as §1, §2, §3, §4

[4] = tested on: Trichoderma virens (ATCC 9645); assay: MIC on Potato Dextrose Agar; conditions: PDA agar, 25-30° C.
Method: as §1, §2, §3, §4

[5] = tested on: Aspergillus niger (ATCC 11414); assay: MIC on Potato Dextrose Agar; conditions: PDA agar, 25-30° C.
Method: as §1, §2, §3, §4

[6] = tested on: Aspergillus oryzae (ATCC 10124); assay: MIC on Potato Dextrose Agar; conditions: PDA agar, 25-30° C.
Method: as §1, §2, §3, §4

[7] = tested on: Candida albicans (ATCC 11651); assay: MIC on Potato Dextrose Agar; conditions: PDA agar, 25-30° C.
Method: as §1, §2, §3, §4

[8] = tested on: Cladosporium cladosporiodes (ATCC 16022); assay: MIC on Potato Dextrose Agar; conditions: PDA agar, 25-30° C.
Method: as §1, §2, §3, §4

[9] = tested on: Ulocladium atrum (ATCC 52426); assay: MIC on Potato Dextrose Agar; conditions: PDA agar, 25-30° C.
Method: as §1, §2, §3, §4

[10] = tested on: Aspergillus flavus (ATCC 96045); assay: MIC on Potato Dextrose Agar; conditions: PDA agar, 25-30° C.
Method: as §1, §2, §3, §4

[11] = tested on: Candida albicans (ATCC 10231); assay: MIC and MBC determination (broth dilution)
Method: (§5) The determination of the MIC and MBC of 9-decenoic acid conformed to the procedure printed in the Federal Register, June 1994 and the present NCCLS M11-A4 protocol. Challenge organisms were prepared as follows. The MIC and MBC of 9-decenoic acid and the methyl ester of 9-decenoic acid were determined for the following challenge organisms: Staphylococcus aureus (ATCC 6538), Pseudomonas aeruginosa (ATCC 15442), Staphylococcus epidermidis (ATCC 12228), Klebsiella pneumoniae (ATCC 4352), Escherichia coli 0157:H7 (ATCC 43895) and Candida albicans (ATCC 10231). Stock cultures of each organism were transferred onto suitable culture media, Mueller-Hinton Agar (MHA) plates, and incubated for 24 hours (+2 hours) at 37° C. (+2° C.). On the day of the test, the top of at least three to five well-isolated colonies were transferred via wire loop to a tube containing 4 to 5 ml of Trypticase Soy Broth (TSB). The TSB culture was incubated for 2 to 6 hours and turbidity was adjusted with sterile saline to achieve the turbidity of a McFarland 0.5 Standard.
(§6) The concentrated 9-decenoic acid (97%) was diluted in Mueller-Hinton Broth (MHB) to yield a 25,000 ppm stock solution of the 9-decenoic acid. For each organism, 12 dilutions of the 9-decenoic acid in MHB were prepared ranging from 0.25% to 0.00049%. The test solution of the methyl ester of 9-decenoic acid was formulated in the same manner.
(§7) A 2-ml aliquot of appropriately diluted 9-decenoic acid solution or methyl ester of 9-decenoic acid was placed in each tube. Each tube was inoculated with 0.05 ml of a 1:10 dilution of one challenge organism. Tubes were incubated at 37° C. (±2° C.) for 20-24 hours and observed for microbial growth visually and by spectrophotometer. […] (±2° C.) for 20-24 hours and visually observed for growth.
(§8) Controls were run for sterility, viability and organism confirmation. It was determined that all cultures were viable and pure.
(§9) The MBC was defined as the concentration of 9-decenoic acid or the methyl ester of 9-decenoic acid that completely eradicated viable organisms from the test system.

[12] = tested on: Klebsiella pneumoniae (ATCC 4352); assay: MIC and MBC determination (broth dilution); conditions: Mueller-Hinton Broth, 20-24 h, 37° C.
Method: as §5, §6, §7, §8, §9

[13] = tested on: Pseudomonas aeruginosa (ATCC 15442); assay: MIC and MBC determination (broth dilution); conditions: Mueller-Hinton Broth, 20-24 h, 37° C.
Method: as §5, §6, §7, §8, §9

[14] = tested on: Escherichia coli 0157:H7 (ATCC 43895); assay: MIC and MBC determination (broth dilution)
Method: as §5, §6, §7, §8, §9

[15] = Mueller-Hinton Broth, 20-24 h, 37° C.

C=CCCCCCCCC(=O)O [9-decenoic acid]
MIC [1]: 0.05%
MIC [2]: 0.05%
MIC [3]: 0.05%
MIC [4]: 0.05%
MIC [5]: 0.05%
MIC [6]: 0.05%
MIC [7]: 0.025%
MIC [8]: 0.025%
MIC [9]: 0.025%
MIC [10]: 0.05%
MIC [11, 15]: 0.0625%
MBC ([11]; subculture on TSA): 0.0625%
MIC [12]: 0.0625%
MIC [13]: 0.0625%
MIC [14, 15]: 0.125%
MBC ([14]; subculture on TSA): 0.125%
